The test deals with T1, Amine oxidase [flavin-containing] A (Homo sapiens, UniProt P21397).
T1 sequence (P21397 whole entry): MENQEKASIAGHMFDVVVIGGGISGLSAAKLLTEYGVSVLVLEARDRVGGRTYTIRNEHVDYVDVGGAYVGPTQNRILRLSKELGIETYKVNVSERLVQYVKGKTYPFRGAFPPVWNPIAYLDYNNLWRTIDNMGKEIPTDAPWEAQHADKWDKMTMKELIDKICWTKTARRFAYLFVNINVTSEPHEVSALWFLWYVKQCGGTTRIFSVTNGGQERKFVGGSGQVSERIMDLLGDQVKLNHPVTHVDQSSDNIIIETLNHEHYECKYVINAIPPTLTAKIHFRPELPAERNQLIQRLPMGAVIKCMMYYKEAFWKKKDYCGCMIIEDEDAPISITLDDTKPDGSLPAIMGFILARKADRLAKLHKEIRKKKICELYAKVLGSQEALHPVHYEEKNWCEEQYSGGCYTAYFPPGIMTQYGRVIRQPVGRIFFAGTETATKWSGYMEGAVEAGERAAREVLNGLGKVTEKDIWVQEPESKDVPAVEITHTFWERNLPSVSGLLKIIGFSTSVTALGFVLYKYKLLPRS
The test is described as follows: Activity Assay: Inhibitory activity of compounds was evaluated by a homogeneous luminescent method, the MAO-Glo Assay (Promega), measuring the monoamine oxidase activity (MAOs) from recombinant source (microsomes from baculovirus infected insect cells, Sigma).

Structures are written as SMILES.

In general, IC50 refers to the midpoint of a concentration-inhibition curve. With `CS(=O)(=O)c1ccc(-c2ccc3cc(-n4ccnc4)ccc3n2)cc1`, the IC50 came to 450 nM.

These data come from ChEMBL document CHEMBL3638392, “6-1H-imidazo-quinazoline and quinolines derivatives, new MAO inhibitors and imidazoline receptor ligands” (2014).
